Laboratory results reported in patent publication US20260053932A1, “COMPOUNDS AND METHODS FOR THE TARGETED DEGRADATION OF ANDROGEN RECEPTOR AND ASSOCIATED METHODS OF USE” (Arvinas Operations, Inc., priority 2020, published 2026).

Tested on: androgen receptor (AR) in LNCaP and/or VCaP cells
Test: Androgen Receptor ELISA assay (AR degradation)
Type: cell-based
Settings: degradation of AR ELISA in LNCaP and/or VCaP cells; Table 2C; read-out: DC50 Code*
In short: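 VCaP cells grown ≥3 days, then treated 5 h with compound in media containing 1 nM R1881 (10× stock). Cells lysed and AR quantified by sandwich ELISA (mouse AR detection Ab, HRP anti-mouse, TMB). DC50 and Dmax derived from AR degradation.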

SMILES	DC50 [µM]
CCOc1cc(O[C@H]2C(C)(C)[C@H](NC(=O)c3cnc(N4CC(CN(C(C)C)[C@H]5C[C@H](Oc6ccc7c(c6)C(=O)N(C6CCC(=O)NC6=O)C7=O)C5)C4)cn3)C2(C)C)ccc1C#N (stereo partly shown) [compound 134, N-((1r,3r)-3-(4-cyano-3-ethoxyphenoxy)-2,2,4,4-tetramethylcyclobutyl)-5-(3-((((1r,3r)-3-((2-(2,6-dioxopiperidin-3-yl)-1,3-dioxoisoindolin-5-yl)oxy)cyclobutyl) (isopropyl)amino)methyl)azetidin-1-yl)pyrazine-2-carboxamide]	0.001 to 0.01
COc1cc(O[C@H]2C(C)(C)[C@H](NC(=O)c3cnc(N4CCC(CN(CC(F)F)[C@H]5C[C@H](Oc6cc(OC)c7c(c6)C(=O)N(C6CCC(=O)NC6=O)C7=O)C5)CC4)cn3)C2(C)C)ccc1C#N (stereo partly shown) [compound 135, N-((1r,3r)-3-(4-cyano-3-methoxyphenoxy)-2,2,4,4-tetramethylcyclobutyl)-5-(4-(((2,2-difluoroethyl)((1r,3r)-3-((2-(2,6-dioxopiperidin-3-yl)-7-methoxy-1,3-dioxoisoindolin-5-yl)oxy)cyclobutyl)amino)methyl)piperidin-1-yl)pyrazine-2-carboxamide]	0.001 to 0.01
COc1cc(O[C@H]2C[C@H](N(CC(F)F)CC3CCN(c4ccc(C(=O)N[C@H]5C(C)(C)[C@H](Oc6ccc(C#N)c(Cl)c6)C5(C)C)cc4)CC3)C2)cc2c1C(=O)N(C1CCC(=O)NC1=O)C2=O (stereo partly shown) [compound 136, N-((1r,3r)-3-(3-chloro-4-cyanophenoxy)-2,2,4,4-tetramethylcyclobutyl)-4-(4-(((2,2-difluoroethyl)((1r,3r)-3-((2-(2,6-dioxopiperidin-3-yl)-7-methoxy-1,3-dioxoisoindolin-5-yl)oxy)cyclobutyl)amino)methyl)piperidin-1-yl)benzamide]	0.001 to 0.01
COc1cc(O[C@H]2C[C@H](N(CC(F)F)CC3CCN(c4cnc(C(=O)N[C@H]5C(C)(C)[C@H](Oc6ccc(C#N)c(Cl)c6)C5(C)C)cn4)CC3)C2)cc2c1C(=O)N(C1CCC(=O)NC1=O)C2=O (stereo partly shown) [compound 137, N-((1r,3r)-3-(3-chloro-4-cyanophenoxy)-2,2,4,4-tetramethylcyclobutyl)-5-(4-(((2,2-difluoroethyl)((1r,3r)-3-((2-(2,6-dioxopiperidin-3-yl)-7-methoxy-1,3-dioxoisoindolin-5-yl)oxy)cyclobutyl)amino)methyl)piperidin-1-yl)pyrazine-2-carboxamide]	0.01 to 0.1
CC(C)N(CC1CCN(c2cnc(C(=O)N[C@H]3C(C)(C)[C@H](Oc4ccc(C#N)c(Cl)c4)C3(C)C)cn2)CC1)[C@H]1C[C@H](Oc2ccc3c(c2)C2(CC2)N(C2CCC(=O)NC2=O)C3=O)C1 (stereo partly shown) [compound 138, N-((1r,3r)-3-(3-chloro-4-cyanophenoxy)-2,2,4,4-tetramethylcyclobutyl)-5-(4-((((1r,3r)-3-((2′-(2,6-dioxopiperidin-3-yl)-3′-oxospiro[cyclopropane-1,1′-isoindolin]-6′-yl)oxy)cyclobutyl) (isopropyl)amino)methyl)piperidin-1-yl)pyrazine-2-carboxamide]	> 0.1
CC1(C)[C@H](NC(=O)c2ccc(N3CCC(CN4CCN(c5ccc6c(c5)C5(CC5)N(C5CCC(=O)NC5=O)C6=O)CC4)CC3)cc2)C(C)(C)[C@H]1Oc1ccc(C#N)c(Cl)c1 (stereo partly shown) [compound 139, N-((1r,3r)-3-(3-chloro-4-cyanophenoxy)-2,2,4,4-tetramethylcyclobutyl)-4-(4-((4-(2′-(2,6-dioxopiperidin-3-yl)-3′-oxospiro[cyclopropane-1,1′-isoindolin]-6′-yl)piperazin-1-yl)methyl)piperidin-1-yl)benzamide]	> 0.1
CC1(C)[C@H](NC(=O)c2ccn([C@H]3CC[C@H](CCCOc4ccc5c(c4)C(=O)N(C4CCC(=O)NC4=O)C5=O)CC3)n2)C(C)(C)[C@H]1Oc1ccc(C#N)c(Cl)c1 (stereo partly drawn) [compound 140, N-((1r,3R)-3-(3-chloro-4-cyanophenoxy)-2,2,4,4-tetramethylcyclobutyl)-1-((1r,4R)-4-(3-((2-(2,6-dioxopiperidin-3-yl)-1,3-dioxoisoindolin-5-yl)oxy)propyl)cyclohexyl)-1H-pyrazole-3-carboxamide]	> 0.1
